# From US11629171B2, “Beta-hairpin peptidomimetics” (POLYPHOR AG, priority 2017, dated 2023)
# Where a SMILES comes first, the peptide text is derived from it. Bridges are numbered along the chain shown (N, C = ends). Roman numbers before positions name the chains, in order. [ ]: non-standard residue; d: D form. The star is where a group is joined. Tle = CC(C)(C)[C@H](N)C(=O)O; NMeV = CN[C@H](C(=O)O)C(C)C; Hiv = CC(C)[C@H](O)C(=O)O; dDab = NCC[C@@H](N)C(=O)O; hSer = N[C@@H](CCO)C(=O)O; NHCH(CH2OH)2 = OCC(CO)N*; Orn = NCCC[C@H](N)C(=O)O; Dab = NCC[C@H](N)C(=O)O; Dap = NC[C@H](N)C(=O)O
# Experiments:
# Type in all cases: cell-based
# [1] = test system: Klebsiella pneumoniae 968733; details: 968733
# Experimental: (§1) The in vitro antimicrobial activities of the peptides were determined in 96-well plates (Greiner, polystyrene) by the standard CLSI broth microdilution method (Clinical and Laboratory Standards Institute 2014. Performance standards for antimicrobial susceptibility testing, 24th informational supplement. Approved standard CLSI M100-S24; Clinical and Laboratory Standards Institute, Wayne, Pa.). The following microorganisms were used to determine antibiotic activity of the peptides: Escherichia coli ATCC 25922, Klebsiella pneumoniae SSI #3010^a), Acinetobacter baumannii DSM 30008, Pseudomonas aeruginosa ATCC 27853 and the clinical isolates Escherichia coli 926415^b), Klebsiella pneumoniae 968733^b), Acinetobacter baumannii 872842^b), Enterobacter cloacae 848840^b) and Escherichia coli MCR-1 Af45^c). Before preparation of inocula, Escherichia coli MCR-1 Af45 was subcultured on Mueller-Hinton II (MH-cation adjusted) agar containing 2 μg/mL colistin. ^a) Obtained from Statens Serum Institut (SSI), Copenhagen, Denmark^b) Obtained from International Health Management Associates, Inc. (IHMA Europe Sàrl), Epalinges, Switzerland^c) Obtained from Prof. Patrice Nordmann, University of Fribourg, Fribourg, Switzerland
# (§2) Inocula of the microorganisms were diluted into Mueller-Hinton II (MH-cation adjusted) broth and compared with a 0.5 McFarland standard to give appr. 10^6 colony forming units (CFU)/mL. Aliquots (90 μL) of inoculum were added to 10 μL of MH-II broth+P-80 (Polysorbate 80, 0.002% final concentration, v/v) containing the peptide in serial two-fold dilutions. Antimicrobial activities of the peptides were expressed as the minimal inhibitory concentration (MIC) in μg/mL at which no visible growth was observed after 18-20 hours of incubation at 35° C.
# [2] = test system: Enterobacter cloacae 848840; details: 848840
# Experimental: as §1, §2
# [3] = test system: Acinetobacter baumannii 872842; details: 872842
# Experimental: as §1, §2
# [4] = test system: Escherichia coli ATCC 25922; details: ATCC 25922
# Experimental: as §1, §2
# [5] = test system: Klebsiella pneumoniae SSI #3010; details: SSI #3010
# Experimental: as §1, §2
# [6] = test system: Acinetobacter baumannii DSM 30008; details: DSM 30008
# Experimental: as §1, §2
# [7] = test system: Pseudomonas aeruginosa ATCC 27853; details: ATCC 27853
# Experimental: as §1, §2
# [8] = test system: Escherichia coli 926415; details: 926415
# Experimental: as §1, §2
# [9] = test system: human red blood cells (hRBC); assay: Hemolysis; details: red cells of human, 1 h, 200
# Experimental: The peptides were tested for their hemolytic activity against human red blood cells (hRBC). Fresh hRBC were washed four times with phosphate buffered saline (PBS) and centrifuged for 10 min at 3000×g. Compounds (200 μg/mL) were incubated with 20% hRBC (v/v) for 1 h at 37° C. and shaking at 300 rpm. A value of 0% and 100% cell lysis, respectively, was determined by incubation of hRBC in the presence of PBS containing 10% water and 2% Triton X-100 in H2O, respectively. The samples were centrifuged, the supernatants were ˜7.5-fold diluted in PBS buffer and the optical densities (OD) were measured at 540 nm and blank corrected. The 100% lysis value (OD540Triton X-100) gave an OD540 of approximately 0.5-1.0.
# Percent hemolysis was calculated as follows: (OD540peptide/OD540Triton X-100)×100%.
MIC [1],MIC [2],MIC [3],MIC [4],MIC [5],MIC [6],MIC [7],MIC [8],SMILES,Hemolysis at 200 μg/mL [9]
1 µg/mL,0.25 µg/mL,0.25 µg/mL,0.125 µg/mL,0.125 µg/mL,0.125 µg/mL,0.125 µg/mL,0.25 µg/mL,CN[C@H](C(=O)N[C@H](C(=O)N[C@@H](Cc1ccc(O)cc1)C(=O)N[C@H]1CSSC[C@@H](C(=O)N[C@H](C(=O)N[C@@H](C)C(=O)N[C@@H](CO)C(N)=O)C(C)(C)C)NC(=O)[C@H](Cc2c[nH]c3ccccc23)NC(=O)[C@H](CCO)NC(=O)[C@@H](CCN)NC(=O)[C@H](CCC(=O)N[C@@H](CCN)C(=O)N[C@H](C(=O)N[C@@H](CCN)C(=O)N[C@H]2CCNC(=O)[C@H]([C@@H](C)O)NC(=O)[C@H](CCN)NC(=O)[C@H](CCN)NC(=O)[C@H](CC(C)C)NC(=O)[C@@H](CC(C)C)NC(=O)[C@H](CCN)NC2=O)[C@@H](C)O)NC1=O)[C@@H](C)O)C(C)C [Ex. 185] (I: H-[NMeV]TYCE[dDab][hSer]WC[Tle]AS-NH2 / II: [Dab]T[Dab][Dab][Dab][dL]L[Dab][Dab]T; disulfide I:4-I:9; amide I:5-II:N; lactam II:4-II:C),<1%
0.5 µg/mL,0.125 µg/mL,0.125 µg/mL,0.0625 µg/mL,0.0625 µg/mL,0.03125 µg/mL,0.125 µg/mL,0.25 µg/mL,CC(=O)N[C@@H](CCN)C(=O)N[C@H](C(=O)N[C@H](C(=O)N[C@@H](Cc1ccc(O)cc1)C(=O)N[C@H]1CSSC[C@@H](C(=O)N[C@H](C(=O)N[C@@H](C)C(=O)N[C@@H](CO)C(N)=O)C(C)(C)C)NC(=O)[C@H](Cc2c[nH]c3ccccc23)NC(=O)[C@H](CO)NC(=O)[C@@H](CCN)NC(=O)[C@H](CCC(=O)N[C@@H](CCN)C(=O)N[C@H](C(=O)N[C@@H](CN)C(=O)N[C@H]2CCNC(=O)[C@H]([C@@H](C)O)NC(=O)[C@H](CCN)NC(=O)[C@H](CCN)NC(=O)[C@H](CC(C)C)NC(=O)[C@@H](CC(C)C)NC(=O)[C@H](CCN)NC2=O)[C@@H](C)O)NC1=O)[C@@H](C)O)C(C)C [Ex. 237] (I: Ac-[Dab]VTYCE[dDab]SWC[Tle]AS-NH2 / II: [Dab]T[Dap][Dab][Dab][dL]L[Dab][Dab]T; disulfide I:5-I:10; amide I:6-II:N; lactam II:4-II:C),<1%
2 µg/mL,0.25 µg/mL,0.25 µg/mL,0.125 µg/mL,0.125 µg/mL,0.0625 µg/mL,0.125 µg/mL,0.5 µg/mL,CC(=O)N[C@H](C(=O)N[C@H](C(=O)N[C@@H](Cc1ccc(O)cc1)C(=O)N[C@H]1CSSC[C@@H](C(=O)N[C@H](C(=O)N[C@@H](C)C(=O)N[C@@H](CO)C(N)=O)C(C)(C)C)NC(=O)[C@H](Cc2c[nH]c3ccccc23)NC(=O)[C@H]([C@@H](C)O)NC(=O)[C@@H](CCN)NC(=O)[C@H](CCC(=O)N[C@@H](CCN)C(=O)N[C@H](C(=O)N[C@@H](CCN)C(=O)N[C@H]2CCNC(=O)[C@H]([C@@H](C)O)NC(=O)[C@H](CCN)NC(=O)[C@H](CCN)NC(=O)[C@H](CC(C)C)NC(=O)[C@@H](CC(C)C)NC(=O)[C@H](CCN)NC2=O)[C@@H](C)O)NC1=O)[C@@H](C)O)C(C)C [Ex. 178] (I: Ac-VTYCE[dDab]TWC[Tle]AS-NH2 / II: [Dab]T[Dab][Dab][Dab][dL]L[Dab][Dab]T; disulfide I:4-I:9; amide I:5-II:N; lactam II:4-II:C),<1%
4 µg/mL,,1 µg/mL,0.25 µg/mL,0.5 µg/mL,0.25 µg/mL,0.25 µg/mL,0.5 µg/mL,CC(C)C[C@@H]1NC(=O)[C@@H](CC(C)C)NC(=O)[C@H](CCN)NC(=O)[C@@H](NC(=O)[C@H](CN)NC(=O)[C@@H](NC(=O)[C@H](CCN)NC(=O)CC[C@H]2NC(=O)[C@@H](CCN)NC(=O)[C@H](CCCN)NC(=O)[C@H](CCN)NC(=O)[C@H](Cc3ccc(O)cc3)NC(=O)[C@@H](NC(=O)[C@@H](O)C(C)C)CSSC[C@@H](C(=O)N[C@H](C(N)=O)[C@@H](C)O)NC(=O)[C@H](C(C)(C)C)NC(=O)[C@H](CO)NC(=O)[C@H](Cc3c[nH]c4ccccc34)NC2=O)[C@@H](C)O)CCNC(=O)[C@H]([C@@H](C)O)NC(=O)[C@H](CCN)NC(=O)[C@H](CCN)NC1=O [Ex. 169] (I: H-[Hiv]CY[Dab][Orn][dDab][dE]WS[Tle]CT-NH2 / II: [Dab]T[Dap][Dab][Dab][dL]L[Dab][Dab]T; disulfide I:2-I:11; amide I:7-II:N; lactam II:4-II:C),<1%
8 µg/mL,,0.5 µg/mL,0.125 µg/mL,0.5 µg/mL,0.25 µg/mL,0.25 µg/mL,1 µg/mL,CC(C)C[C@@H]1NC(=O)[C@@H](CC(C)C)NC(=O)[C@H](CCN)NC(=O)[C@@H](NC(=O)[C@H](CN)NC(=O)[C@@H](NC(=O)[C@H](CCN)NC(=O)CC[C@@H]2NC(=O)[C@H](CCCN)NC(=O)[C@H](CCN)NC(=O)[C@H](Cc3ccc(O)cc3)NC(=O)[C@@H](NC(=O)[C@@H](O)C(C)C)CSSC[C@@H](C(=O)NC(CO)CO)NC(=O)[C@H](C(C)(C)C)NC(=O)[C@H](CO)NC(=O)[C@H](Cc3c[nH]c4ccccc34)NC(=O)[C@H]([C@@H](C)O)NC2=O)[C@@H](C)O)CCNC(=O)[C@H]([C@@H](C)O)NC(=O)[C@H](CCN)NC(=O)[C@H](CCN)NC1=O [Ex. 162] (I: H-[Hiv]CY[Dab][Orn]ETWS[Tle]C-{NHCH(CH2OH)2} / II: [Dab]T[Dap][Dab][Dab][dL]L[Dab][Dab]T; disulfide I:2-I:11; amide I:6-II:N; lactam II:4-II:C),<1%
1 µg/mL,,8 µg/mL,0.25 µg/mL,0.125 µg/mL,0.25 µg/mL,0.5 µg/mL,2 µg/mL,CC(=O)N[C@H](C(=O)N[C@H]1CSSC[C@@H](C(=O)N[C@H](C(N)=O)C(C)C)NC(=O)[C@H](Cc2ccc(O)cc2)NC(=O)[C@H](CO)NC(=O)[C@H](Cc2c[nH]c3ccccc23)NC(=O)[C@H](CCO)NC(=O)[C@@H](CCN)NC(=O)[C@H](CCC(=O)N[C@@H](CCN)C(=O)N[C@H](C(=O)N[C@@H](CCN)C(=O)N[C@H]2CCNC(=O)[C@H]([C@@H](C)O)NC(=O)[C@H](CCN)NC(=O)[C@H](CCN)NC(=O)[C@H](CC(C)C)NC(=O)[C@@H](CC(C)C)NC(=O)[C@H](CCN)NC2=O)[C@@H](C)O)NC(=O)[C@H](CCN)NC(=O)[C@H](CO)NC1=O)C(C)C [Ex. 68] (I: Ac-VCS[Dab]E[dDab][hSer]WSYCV-NH2 / II: [Dab]T[Dab][Dab][Dab][dL]L[Dab][Dab]T; disulfide I:2-I:11; amide I:5-II:N; lactam II:4-II:C),<1%
